The nature of series [1]: Hygroscopicity (moisture absorption) in DVS. In kind it is physicochemical. The settings on record: relative humidity (RH) of 90%.
Series [2] can be described thus: Stability of the polymorphic form (vacuum at 50° C., crushing). It is filed as physicochemical.
The conditions of series [3]: mixed with three volumes of lactose monohydrate, 40° C. and 75% RH, one week.

Each structure is given as a SMILES string.

Results on three compounds are retold here after patent US6962924B2, “Salt and polymorphs of desloratadine hemifumarate” (priority 2002, dated 2005).

The compound `Clc1ccc2c(c1)CCc1cccnc1C2=C1CCNCC1.Clc1ccc2c(c1)CCc1cccnc1C2=C1CCNCC1.O=C(O)C=CC(=O)O` [Desloratadine hemifumarate (polymorph 1), Descarbonylethoxyloratadine Hemifumarate] gave a moisture absorption value in series [1] (listed as desloratadine polymorphic form 1) of 0.9%. Further, the “Change of polymorphic form under vacuum at 50° C.” value in series [2] is given as “can be changed to polymorphic form 2”. For the same compound, the “Appearance after stress storage (color, crystallinity, texture)” value (from here on “Appearance after stress storage”) in series [3] is “retained its crystallinity, color and the texture”.
For the compound `Clc1ccc2c(c1)CCc1cccnc1C2=C1CCNCC1` [Standard desloratadine, 8-chloro-6,11-dihydro-11-(4-piperidylidene)-5H-benzo[5,6]-cyclohepta[1,2-b]pyridine, reference compound], the moisture absorption value in series [1] worked out at 0.3%. Moreover, the “Appearance after stress storage” value in series [3] is given as “showed discoloration”.
In the case of `Clc1ccc2c(c1)CCc1cccnc1C2=C1CCNCC1.Clc1ccc2c(c1)CCc1cccnc1C2=C1CCNCC1.O=C(O)C=CC(=O)O` [Desloratadine hemifumarate (polymorph 2), Descarbonylethoxyloratadine Hemifumarate], the moisture absorption value in series [1] (listed as Desloratadine hemifumarate polymorphic form 2) is 0.3%. The “Appearance after stress storage” value in series [3] is “retained its crystallinity, color and the texture”.
